Values quoted from earlier work in patent publication US20150366189A1, “DRY MELT COATING PROCESS AND FORMULATION FOR VOLATILE COMPOUNDS” (AGROFRISH INC., priority 2013, published 2015).

Conditions: enclosed space

In the case of CC1=CC1 [Experiment 1-MCP, 1-Methylcyclopropene], the “concentration threshold above which 1-MCP is flammable” value is given as > 13,300 ppm.
